tested on: HCV genotype-1a variant with glutamine 30 changed to glutamate in the NS5A protein; assay type: cell-based; settings: test compound titrated with BMS-790052 fixed at 200 nM; genotype 1a Q30E replicon
From the text: The NS5A synergistic inhibitory effect of test compounds can be determined using various amounts of an NS5A-targeting compound with titration of a second compound of interest. […] In one embodiment, the HCV genotype strain can be genotype 1a containing a change at amino acid 30 of the NS5A protein consisting of glutamine to glutamate. The test compound can be chosen from compounds listed above or from others present in the literature.

Structure (SMILES)	Fold-Synergistic 1a (Q30E) [fold]
CC(C)(C(=O)N[C@H](c1nc(-c2ccc(-c3ccc(-c4c[nH]c([C@@H](NC(=O)C(C)(C)C(O)c5ccccc5F)C(C)(C)C)n4)cc3)cc2)c[nH]1)C(C)(C)C)C(O)c1ccccc1F (single isomer, unassigned) [Compound N-124C]	>100
COc1ccccc1C(O)C(C)(C)C(=O)N[C@H](c1nc(-c2ccc(-c3ccc(-c4c[nH]c([C@@H](NC(=O)C(C)(C)C(O)c5ccccc5OC)C(C)(C)C)n4)cc3)cc2)c[nH]1)C(C)(C)C (single isomer, unassigned) [Compound N-125A]	>100
COc1ccccc1C(O)C(C)(C)C(=O)N[C@H](c1nc(-c2ccc(-c3ccc(-c4c[nH]c([C@@H](NC(=O)C(C)(C)C(O)c5ccccc5OC)C(C)(C)C)n4)cc3)cc2)c[nH]1)C(C)(C)C (single isomer, unassigned) [Compound N-125B]	>100
COc1ccccc1C(O)C(C)(C)C(=O)N[C@H](c1nc(-c2ccc(-c3ccc(-c4c[nH]c([C@@H](NC(=O)C(C)(C)C(O)c5ccccc5OC)C(C)(C)C)n4)cc3)cc2)c[nH]1)C(C)(C)C (single isomer, unassigned) [Compound N-125C]	>100
CC(C)(C)[C@H](NC(=O)C1(C(O)c2ccccc2)CC1)c1nc(-c2ccc(-c3ccc(-c4c[nH]c([C@@H](NC(=O)C5(C(O)c6ccccc6)CC5)C(C)(C)C)n4)cc3)cc2)c[nH]1 (single isomer, unassigned) [Compound N-126A]	>100
CC(C)(C)[C@H](NC(=O)C1(C(O)c2ccccc2)CC1)c1nc(-c2ccc(-c3ccc(-c4c[nH]c([C@@H](NC(=O)C5(C(O)c6ccccc6)CC5)C(C)(C)C)n4)cc3)cc2)c[nH]1 (single isomer, unassigned) [Compound N-126B]	>100
CC(C)(C)[C@H](NC(=O)C1(C(O)c2ccccc2)CC1)c1nc(-c2ccc(-c3ccc(-c4c[nH]c([C@@H](NC(=O)C5(C(O)c6ccccc6)CC5)C(C)(C)C)n4)cc3)cc2)c[nH]1 (single isomer, unassigned) [Compound N-126C]	>100
CC(C)(C(=O)N[C@H](c1nc(-c2ccc(-c3ccc(-c4c[nH]c([C@@H](NC(=O)C(C)(C)C(O)c5ccccc5)C(C)(C)C)n4)cc3)cc2)c[nH]1)C(C)(C)C)C(O)c1ccccc1 (single isomer, unassigned) [Compound N-127A]	>100
CC(C)(C(=O)N[C@H](c1nc(-c2ccc(-c3ccc(-c4c[nH]c([C@@H](NC(=O)C(C)(C)C(O)c5ccccc5)C(C)(C)C)n4)cc3)cc2)c[nH]1)C(C)(C)C)C(O)c1ccccc1 (single isomer, unassigned) [Compound N-127B]	>100
CC(C)(C(=O)N[C@H](c1nc(-c2ccc(-c3ccc(-c4c[nH]c([C@@H](NC(=O)C(C)(C)C(O)c5ccccc5)C(C)(C)C)n4)cc3)cc2)c[nH]1)C(C)(C)C)C(O)c1ccccc1 (single isomer, unassigned) [Compound N-127C]	>100
CC(C)(C(=O)N[C@H](c1nc(-c2ccc(-c3ccc(-c4c[nH]c([C@@H](NC(=O)C(C)(C)C(O)c5ccccn5)C(C)(C)C)n4)cc3)cc2)c[nH]1)C(C)(C)C)C(O)c1ccccn1 (single isomer, unassigned) [Compound N-128A]	>100
CC(C)(C(=O)N[C@H](c1nc(-c2ccc(-c3ccc(-c4c[nH]c([C@@H](NC(=O)C(C)(C)C(O)c5ccccn5)C(C)(C)C)n4)cc3)cc2)c[nH]1)C(C)(C)C)C(O)c1ccccn1 (single isomer, unassigned) [Compound N-128B]	>100
COc1ccccc1C(O)CC(=O)N[C@H](c1nc(-c2ccc(-c3ccc(-c4c[nH]c([C@@H](NC(=O)C5(C(O)c6ccccc6OC)CC5)C(C)(C)C)n4)cc3)cc2)c[nH]1)C(C)(C)C (single isomer, unassigned) [Compound N-135A]	>100
COc1ccccc1C(O)CC(=O)N[C@H](c1nc(-c2ccc(-c3ccc(-c4c[nH]c([C@@H](NC(=O)C5(C(O)c6ccccc6OC)CC5)C(C)(C)C)n4)cc3)cc2)c[nH]1)C(C)(C)C (single isomer, unassigned) [Compound N-135B]	>100
COc1ccccc1C(O)CC(=O)N[C@H](c1nc(-c2ccc(-c3ccc(-c4c[nH]c([C@@H](NC(=O)C5(C(O)c6ccccc6OC)CC5)C(C)(C)C)n4)cc3)cc2)c[nH]1)C(C)(C)C (single isomer, unassigned) [Compound N-135C]	>100
COC(c1ccccc1)C1(C(=O)N[C@H](c2nc(-c3ccc(-c4ccc(-c5c[nH]c([C@@H](NC(=O)C6(C(OC)c7ccccc7)CC6)C(C)(C)C)n5)cc4)cc3)c[nH]2)C(C)(C)C)CC1 (single isomer, unassigned) [Compound N-137A]	>100
COC(c1ccccc1)C1(C(=O)N[C@H](c2nc(-c3ccc(-c4ccc(-c5c[nH]c([C@@H](NC(=O)C6(C(OC)c7ccccc7)CC6)C(C)(C)C)n5)cc4)cc3)c[nH]2)C(C)(C)C)CC1 (single isomer, unassigned) [Compound N-137B]	>100
COC(c1ccccc1)C1(C(=O)N[C@H](c2nc(-c3ccc(-c4ccc(-c5c[nH]c([C@@H](NC(=O)C6(C(OC)c7ccccc7)CC6)C(C)(C)C)n5)cc4)cc3)c[nH]2)C(C)(C)C)CC1 (single isomer, unassigned) [Compound N-137C]	>100
CC(O)(CF)C(=O)N[C@H](c1nc(-c2ccc(-c3ccc(-c4c[nH]c([C@@H](NC(=O)C(C)(O)CF)C(C)(C)C)n4)cc3)cc2)c[nH]1)C(C)(C)C (single isomer, unassigned) [Compound N-139A]	>100
CC(O)(CF)C(=O)N[C@H](c1nc(-c2ccc(-c3ccc(-c4c[nH]c([C@@H](NC(=O)C(C)(O)CF)C(C)(C)C)n4)cc3)cc2)c[nH]1)C(C)(C)C (single isomer, unassigned) [Compound N-139B]	>100
CC(O)(CF)C(=O)N[C@H](c1nc(-c2ccc(-c3ccc(-c4c[nH]c([C@@H](NC(=O)C(C)(O)CF)C(C)(C)C)n4)cc3)cc2)c[nH]1)C(C)(C)C (single isomer, unassigned) [Compound N-139C]	>100
CC(C)(C(=O)N[C@H](c1nc(-c2ccc(-c3ccc(-c4c[nH]c([C@@H](NC(=O)C(C)(C)C(O)C5CCC(F)(F)CC5)C(C)(C)C)n4)cc3)cc2)c[nH]1)C(C)(C)C)C(O)C1CCC(F)(F)CC1 (single isomer, unassigned) [Compound N-143A]	>100
CC(C)(C(=O)N[C@H](c1nc(-c2ccc(-c3ccc(-c4c[nH]c([C@@H](NC(=O)C(C)(C)C(O)C5CCC(F)(F)CC5)C(C)(C)C)n4)cc3)cc2)c[nH]1)C(C)(C)C)C(O)C1CCC(F)(F)CC1 (single isomer, unassigned) [Compound N-143B]	>100
CC(C)(C(=O)N[C@H](c1nc(-c2ccc(-c3ccc(-c4c[nH]c([C@@H](NC(=O)C(C)(C)C(O)C5CCC(F)(F)CC5)C(C)(C)C)n4)cc3)cc2)c[nH]1)C(C)(C)C)C(O)C1CCC(F)(F)CC1 (single isomer, unassigned) [Compound N-143C]	>100

Source: patent US20160158200A1, “Combinations of Hepatitis C Virus Inhibitors” (priority 2013, published 2016)
